# Source: patent publication US10336809B2, “Peptides and combination of peptides for use in immunotherapy against various tumors” (immatics biotechnologies GmbH, priority 2015, dated 2019)
# System: CD8+ T cells
# Experiment: In vitro T-cell priming assay with aAPCs loaded with peptide/MHC complexes and anti-CD28 antibody, pMHC multimer readout
# Assay type: cell-based, human
# Conditions: healthy HLA-A*02+ donors, positive donors
# Description: In order to obtain information regarding the immunogenicity of the TUMAPs of the present invention, the inventors performed investigations using an in vitro T-cell priming assay based on repeated stimulations of CD8+ T cells with artificial antigen presenting cells (aAPCs) loaded with peptide/MHC complexes and anti-CD28 antibody.
# In order to perform in vitro stimulations by artificial antigen presenting cells loaded with peptide-MHC complex (pMHC) and anti-CD28 antibody, the inventors first isolated CD8+ T cells from fresh HLA-A*02 leukapheresis products via positive selection using CD8 microbeads (Miltenyi Biotec, Bergisch-Gladbach, Germany) of healthy donors obtained from the University clinics Mannheim, Germany, after informed consent. PBMCs and isolated CD8+ lymphocytes were incubated in T-cell medium (TCM) until use consisting of RPMI-Glutamax (Invitrogen, Karlsruhe, Germany) supplemented with 10% heat inactivated human AB serum (PAN-Biotech, Aidenbach, Germany), 100 U/ml Penicillin/100 μg/ml Streptomycin (Cambrex, Cologne, Germany), 1 mM sodium pyruvate (CC Pro, Oberdorla, Germany), 20 μg/ml Gentamycin (Cambrex). 2.5 ng/ml IL-7 (PromoCell, Heidelberg, Germany) and 10 U/ml IL-2 (Novartis Pharma, Nürnberg, Germany) were also added to the TCM at this step. Generation of pMHC/anti-CD28 coated beads, T-cell stimulations and readout was performed in a highly defined in vitro system using four different pMHC molecules per stimulation condition and 8 different pMHC molecules per readout condition.
# The purified co-stimulatory mouse IgG2a anti human CD28 Ab 9.3 (Jung et al., 1987) was chemically biotinylated using Sulfo-N-hydroxysuccinimidobiotin as recommended by the manufacturer (Perbio, Bonn, Germany). Beads used were 5.6 μm diameter streptavidin coated polystyrene particles (Bangs Laboratories, Illinois, USA).
# pMHC used for positive and negative control stimulations were A*0201/MLA-001 (peptide […] (SEQ ID NO. 289) from modified Melan-A/MART-1) and A*0201/DDX5-001 ([…] from DDX5, SEQ ID NO. 290), respectively.
# 800.000 beads/200 μl were coated in 96-well plates in the presence of 4×12.5 ng different biotin-pMHC, washed and 600 ng biotin anti-CD28 were added subsequently in a volume of 200 μl. Stimulations were initiated in 96-well plates by co-incubating […] CD8+ T cells with 2×10^5 washed coated beads in 200 μl TCM supplemented with 5 ng/ml IL-12 (PromoCell) for 3 days at 37° C. Half of the medium was then exchanged by fresh TCM supplemented with 80 U/ml IL-2 and incubating was continued for 4 days at 37° C. This stimulation cycle was performed for a total of three times. For the pMHC multimer readout using 8 different pMHC molecules per condition, a two-dimensional combinatorial coding approach was used as previously described (Andersen et al., 2012) with minor modifications encompassing coupling to 5 different fluorochromes. Finally, multimeric analyses were performed by staining the cells with Live/dead near IR dye (Invitrogen, Karlsruhe, Germany), CD8-FITC antibody clone SK1 (BD, Heidelberg, Germany) and fluorescent pMHC multimers. For analysis, a BD LSRII SORP cytometer equipped with appropriate lasers and filters was used. Peptide specific cells were calculated as percentage of total CD8+ cells. Evaluation of multimeric analysis was done using the FlowJo software (Tree Star, Oregon, USA). In vitro priming of specific multimer+ CD8+ lymphocytes was detected by comparing to negative control stimulations.
# Exemplary flow cytometry results after TUMAP-specific multimer staining for 2 peptides of the invention are shown in FIG. 3 together with corresponding negative controls.
row,Substance,"in vitro immunogenicity, donors"
1,287 (KIQEILTQV; listed as Homo sapiens) [compound 287],+++ (50%-69% = +++)
2,288 (SLYKGLLSV; listed as Homo sapiens) [compound 288],++++ (>=70% = ++++)

# Same assay, conditions: healthy HLA-A*02+ donors, positive wells
row,Substance,"in vitro immunogenicity, wells"
1,287 (KIQEILTQV; listed as Homo sapiens) [compound 287],+ (<20% = +)

# Same assay, conditions: in vitro immunogenicity, HLA-A*02 restricted peptides, CD8+ T cells of healthy donors, pMHC multimer readout
row,Substance,Wells positive [%]
1,17 (GLLPSAESIKL; listed as Homo sapiens) [compound 17],+ (<20% = +)
2,233 (SLFESLEYL; listed as Homo sapiens) [compound 233],+ (<20% = +)
3,121 (ALYVQAPTV; listed as Homo sapiens) [compound 121],+ (<20% = +)
4,66 (AMFPDTIPRV; listed as Homo sapiens) [compound 66],+ (<20% = +)
5,50 (ILLSVLHQL; listed as Homo sapiens) [compound 50],+ (<20% = +)
6,236 (KMSELQTYV; listed as Homo sapiens) [compound 236],+ (<20% = +)
7,97 (KLFEKSTGL; listed as Homo sapiens) [compound 97],+ (<20% = +)
8,9 (SLITGQDLLSV; listed as Homo sapiens) [compound 9],+ (<20% = +)
9,101 (SLLEVNEASSV; listed as Homo sapiens) [compound 101],+ (<20% = +)
10,254 (ALGDKFLLRV; listed as Homo sapiens) [compound 254],+ (<20% = +)
11,246 (ALAGIVTNV; listed as Homo sapiens) [compound 246],+ (<20% = +)
12,39 (YLEDGFAYV; listed as Homo sapiens) [compound 39],++++ (>=70% = ++++)
13,102 (GLYPVTLVGV; listed as Homo sapiens) [compound 102],+ (<20% = +)
14,242 (KLQEEIPVL; listed as Homo sapiens) [compound 242],+ (<20% = +)
15,14 (YTFSGDVQL; listed as Homo sapiens) [compound 14],+ (<20% = +)
16,34 (TLNTLDINL; listed as Homo sapiens) [compound 34],++++ (>=70% = ++++)
17,35 (VIIKGLEEI; listed as Homo sapiens) [compound 35],+ (<20% = +)
18,257 (KLIDHQGLYL; listed as Homo sapiens) [compound 257],+ (<20% = +)
19,263 (SIIEYLPTL; listed as Homo sapiens) [compound 263],+ (<20% = +)
20,29 (KMISAIPTL; listed as Homo sapiens) [compound 29],+ (<20% = +)
21,157 (ILQDGQFLV; listed as Homo sapiens) [compound 157],+ (<20% = +)
22,260 (ALNESLVEC; listed as Homo sapiens) [compound 260],+ (<20% = +)
23,267 (YLLDMPLWYL; listed as Homo sapiens) [compound 267],+ (<20% = +)
24,89 (SLAETIFIV; listed as Homo sapiens) [compound 89],+ (<20% = +)
25,4 (VLFGELPAL; listed as Homo sapiens) [compound 4],+ (<20% = +)
26,27 (GLLGKVTSV; listed as Homo sapiens) [compound 27],+ (<20% = +)
27,264 (TLHDQVHLL; listed as Homo sapiens) [compound 264],+ (<20% = +)
28,77 (ALYGNVQQV; listed as Homo sapiens) [compound 77],+ (<20% = +)
29,255 (FLMKNSDLYGA; listed as Homo sapiens) [compound 255],+ (<20% = +)
